# Measured values: the supplement of paper PMC6723410
# Tested on: GUMC-403
# Test: viability at highest tested concentration (max response) relative to DMSO (% of DMSO control); higher = less cytotoxic
# Details: library / dose series: MIPE library, 11-point 1:3 dilution; top concentration 23 µM; 48 h
# Outline: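 Patient-derived GUMC-403 papilloma cells grown by conditional reprogramming were plated at 700/well in 5 μL F + Y medium in 1536-well plates and incubated overnight at 37 °C. They then received 23 nL of MIPE 4.0 compounds by pin tool (11-point 1:3 series) for 48 h. CellTiter-Glo luminescence was read on a ViewLux and normalised with DMSO wells as 100% and empty wells as 0%. The value is viability at the highest tested concentration relative to DMSO control.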
row,Structure (SMILES),viability
1,C[C@]\12CC[C@H](O)CC1=C/C[C@@H]3[C@@H]2CC[C@@]\4(C)[C@H]3C\C=C4C5=CN=CC=C5,110

# Same assay, conditions: library / dose series: MIPE library, 11-point 1:3 dilution; top concentration 46.1 µM; 48 h
row,Structure (SMILES),viability
1,COc1ccc2c(c1)CN(C)CC2c1ccc(Cl)c(Cl)c1 (configuration not stated),129
2,O=C(/C=C/c1cccnc1)NCCCCC1CCN(C(=O)c2ccccc2)CC1,128
3,COc1cc2nc(N3CCN(C(=O)C4COc5ccccc5O4)CC3)nc(N)c2cc1OC (configuration not stated),115
4,NC(=O)N/N=C/c1ccc([N+](=O)[O-])o1,135
5,CN1CCN2c3ccccc3Cc3ccccc3C2C1 (configuration not stated),106
6,COc1cc(Cl)cn2c(-c3cccc(NC4CNC4)n3)cnc12,133
7,Cc1cc2c(C(C)C)c(O)c(O)c(C=O)c2c(O)c1-c1c(C)cc2c(C(C)C)c(O)c(O)c(C=O)c2c1O,77.1
8,Nc1ccc([S+](=O)([O-])Nc2ncccn2)cc1,131
9,CNC(=O)c1ccc(N2C(=S)N(c3ccc(C#N)c(C(F)(F)F)c3)C(=O)C2(C)C)cc1F,119
10,Clc2cccc(Cl)c2\N=C1/NCCN1,132
11,CO/C1=C/C(C)=C\[C@@H](C)[C@@H](O)[C@@H](C)C/C(C)=C\C=C/[C@H](OC)[C@@H]([C@@H](C)[C@@H](O)[C@H](C)[C@@]2(O)C[C@@H](O)[C@H](C)[C@@H](C(C)C)O2)OC1=O,93
12,C[C@H]1CN(C[C@@H](C)O1)CC(=O)NC2=CC=C3SC4=C(CC3=C2)C=CC=C4\C5=C\C(=O)\C=C(/O5)N6CCOCC6,115
13,Nc1ccccc1NC(=O)c1ccc(CNc2nccc(-c3cccnc3)n2)cc1,85.9
14,CN1C(=O)C(Cc2c[nH]c3ccccc23)NC1=S (configuration not stated),102
15,CCCCOc1ccc(CC(=O)NO)cc1,109
16,C[C@]\12CCC(=O)\C=C1[C@@H]3C[C@@H]3[C@@H]4[C@@H]2CC[C@@]5(C)[C@H]4[C@@H]6C[C@@H]6[C@@]57CCC(=O)O7,89.8
17,CNc1nccc(-c2cccnc2Oc2cc(C(=O)Nc3cccc(C(F)(F)F)c3)ccc2C)n1,98
18,CN1CCN(CCCN2c3ccccc3Sc3ccc(Cl)cc32)CC1.O=C(O)/C=C\C(=O)O.O=C(O)/C=C\C(=O)O,95.8
19,C1CN\2C[C@@H](\N=C2S1)C3=CC=CC=C3,125
20,COCCOc1ccc2c(c1)ncn2-c1ccc2cccc(N3CCC(N)CC3)c2n1,87

row,Structure (SMILES),viability
1,CC1(C)CCC(C)(C)c2cc(NC(=O)c3ccc(C(=O)O)cc3)ccc21,54.2
2,Cc1ccc(-n2nc(C(C)(C)C)cc2NC(=O)Nc2ccc(OCCN3CCOCC3)c3ccccc23)cc1,56
3,[O-]C(=O)C1=C(C(=C(Cl)C(=C1Cl)Cl)Cl)C/2=C/3\C=C(I)/C(=O)/C(=C3OC4=C2C=C(I)C(=C4I)[O-])I,82
4,CCC[C@@H]1C[C@@H](C(=O)N[C@@H]([C@H]2O[C@H](SC)[C@H](O)[C@@H](O)[C@H]2O)[C@@H](C)O)N(C)C1.Cl,101
5,C[C@]12C[C@H](O)[C@H]3[C@@H](CC\C4=C\C(=O)\C=C/[C@]34C)[C@@H]1CC[C@]2(O)C(=O)CO,118
6,C=C[C@H]1CN2CCC1C[C@H]2[C@H](O)c1ccnc2ccccc12 (some centres not stated),101
7,CCOc1ccc(Cc2cc([C@@H]3O[C@H](CO)[C@@H](O)[C@H](O)[C@H]3O)ccc2Cl)cc1,130
8,ClC1=CC=C(C=C1)C(C#N)C2=C(Cl)C=C(C=C2Cl)N3\N=C/C(=O)NC3=O (configuration not stated),125
9,CC(=O)N1CCN(c2ccc(OCc3nn(C)c(C)c3-c3cccc4c(CCCOc5cc(C)c(Cl)c(C)c5)c(C(=O)O)n(Cc5cccnc5)c34)cc2)CC1,137
10,COc1ccc(-c2ccc3cc(C(=O)O)ccc3c2)cc1C12CC3CC(CC(C3)C1)C2,112
11,Cc1cc(O)c2c(c1)C(=O)c1cc(O)cc(O)c1C2=O,114
12,COc1cc(N2CCC(N3CCN(C)CC3)CC2)ccc1Nc1ncnc(Nc2ccccc2[S+](=O)([O-])C(C)C)n1,49.4
13,NC1=NC=C(C=C1)C2=CC=C3N=CC\4=C(N(C(=O)\C=C4)C5=CC(=CC=C5)C(F)(F)F)C3=C2,43.7
14,CNC(=O)c1ccc2c(c1)NC(=O)/C2=C(\Nc1cccc(CN(C)C)c1)c1ccccc1,107
15,CC1=CC=C2\N=C/3N(CC[C@@]3(O)C(=O)C2=C1)C4=CC=CC=C4,104
16,COC/1=C/[C@@H]2[C@@H]3CC4=C(C(=C(OC)C=C4)O)[C@]2(CCN3C)CC1=O,65
17,COCCCC/C(=N\OCCN)c1ccc(C(F)(F)F)cc1,90
18,COc1cccc2c1C(=O)c1c(O)c3c(c(O)c1C2=O)C[C@@](O)(C(=O)CO)C[C@@H]3O[C@H]1C[C@H](N)[C@H](O[C@H]2CCCCO2)[C@H](C)O1,57.9
19,CC(C)(CO)[C@@H](O)C(=O)NCCC(=O)O,82.6
20,O=c1oc2cc(O)ccc2s1,102

row,Structure (SMILES),viability
1,Cl.c1cnc2cc3c(cc2n1)C1CNCC3C1,107
2,CC(C)c1ccc2oc3nc(N)c(C(=O)O)cc3c(=O)c2c1,116
3,C[C@]12CC[C@H]3[C@@H](CC[C@@]45O[C@@H]4C(O)=C(C#N)C[C@]35C)[C@@H]1CC[C@@H]2O,124
4,COC(c1ccccc1)(c1ccccc1)[C@H](Oc1nc(C)cc(C)n1)C(=O)O,136
5,c1cc(-c2sc(-c3ccncc3)c(-c3ccncc3)c2-c2ccncc2)ccn1,106
6,Cc1cc(-c2nnc3n2CCCCC3)c(C)n1-c1ccccc1,103
7,COc1cc(C)c(Sc2cnc(NC(=O)c3ccc(CNC(C)C(C)C)cc3)s2)cc1C(=O)N1CCN(C(C)=O)CC1 (configuration not stated),85.7
8,CC1=CC/2=C(C=C1C)N(C[C@@H](O)[C@@H](O)[C@@H](O)CO)C/3=N/C(=O)NC(=O)C3=N2,123
9,C[C@H](NCc1ccc(OCc2cccc(F)c2)cc1)C(N)=O,80.3
10,O=C1N\2CCC3=C([NH]C4=C3C=CC=C4)C2=N/C5=CC=CC=C15,109
11,CC/1=C(/C(CC(=O)N1)C2=CC=C(C=C2)C(F)(F)F)C(=O)NC3=C(F)C=C4[NH]N=CC4=C3 (configuration not stated),108
12,Cc1cc(-c2ncc(CC(=O)Nc3ccc(-c4cnccn4)cn3)cc2C)ccn1,85.8
13,CCCn1c(=O)c2[nH]c(-c3cnn(Cc4cccc(C(F)(F)F)c4)c3)nc2n(CC)c1=O,119
14,C\C1=C\N([C@H]2C[C@H](N=[N+]=[N-])[C@@H](CO)O2)C(=O)NC1=O,113
15,Nc1c2c(nc3ccccc13)CCCC2,107
16,CN1\C(=C(\O)C2=CC=CC=C2[S+]1([O-])=O)C(=O)NC3=NC=C(C)S3,121
17,CCc1cc(Nc2nccc(-c3c(-c4ccc(OC)c(C(=O)Nc5c(F)cccc5F)c4)nc4ccccn34)n2)c(OC)cc1N1CCC(N2CCN([S+](C)(=O)[O-])CC2)CC1,122
18,CC[C@H]1OC(=O)[C@H](C)C(=O)[C@H](C)[C@@H](O[C@H]2O[C@H](C)C[C@H](N(C)C)[C@H]2O)[C@](C)(OC)C[C@@H](C)C(=O)[C@H](C)[C@H]2N(CCCCn3cnc(-c4cccnc4)c3)C(=O)O[C@]12C,102
19,CC(CCc1ccc(O)cc1)NCCc1ccc(O)c(O)c1 (configuration not stated),105
20,O=C(O)C1CCCN(CCC=C(c2ccccc2)c2ccccc2)C1 (configuration not stated),102

# Same assay, conditions: library / dose series: MIPE library, 11-point 1:3 dilution; top concentration 92.2 µM; 48 h
row,Structure (SMILES),viability
1,O=c1[nH]c(=O)n(C2CCCO2)cc1F (configuration not stated),104
